Values of other authors in patent publication US6416793B1, “Formulations and use of controlled-release indole alkaloids” (BioResponse, L.L.C., priority 2000, dated 2002).
Counter-ions that a name gives are not always drawn.

Key:
[1] = test system: overweight men; conditions: 16.2 to 43.2 mg/day, six month period
[2] = test system: diet-restricted animals
[3] = test system: humans
[4] = tableted preparations of pure yohimbine
[5] = test system: dogs; conditions: 0.4 mg/kg/day
[6] = test system: obese and non-obese women; conditions: in vivo
[7] = test system: overweight female subjects; conditions: three weeks

## COC(=O)[C@@H]1[C@H]2C[C@H]3c4[nH]c5ccccc5c4CCN3C[C@@H]2CC[C@@H]1O [yohimbine Hcl, (16 alpha, 17 alpha)-17-hydroxyyohimban-16-carboxylic acidmethyl ester hydrochloride]
[1]
  additional weight loss versus placebo: failed to show advantage in additional weight loss over placebo

## O=C(O[C@@H]1Cc2c(O)cc(O)cc2O[C@@H]1c1cc(O)c(O)c(O)c1)c1cc(O)c(O)c(O)c1 [epigallocatechin gallate (EGCG), epigallocatechin gallate]
[2]
  rate of weight loss: increase the rate of weight loss in diet-restricted animals
[3]
  resting energy expenditure: increase resting energy expenditure in humans

## COC(=O)[C@@H]1[C@H]2C[C@H]3c4[nH]c5ccccc5c4CCN3C[C@@H]2CC[C@@H]1O [yohimbine]
[4]
  plasma half life: less than 1 hour

## yohimbine
[5]
  body weight: rapid loss of body weight
[5]; rapidly absorbed pure yohimbine
  daily food intake: dramatic reduction in daily food intake
[6]
  circulating levels of norepinephrine: increase circulating levels of norepinephrine
[7]; 5 mg 4 times per day (20 mg/day), weight loss diet
  continued weight loss versus placebo: Significantly greater continued weight loss
[7]; 20 mg/day
  energy expenditure during exercise: greater energy expenditure in the treated group during exercise
